Like-named read-outs stand apart in the source and are kept apart here.
Experiments:
Format in all cases: in vivo
Alternaria solani = assay: Alternaria test (tomatoes)/preventive; conditions: 3 days after inoculation
Description: (§1) Solvent: 24.5 parts by weight of acetone • 24.5 parts by weight of dimethylacetamide
(§2) Emulsifier: 1 part by weight of alkylaryl polyglycol ether
(§3) To produce a suitable preparation of active compound, 1 part by weight of active compound is mixed with the stated amounts of solvent and emulsifier, and the concentrate is diluted with water to the desired concentration.
(§4) To test for preventive activity, young plants are sprayed with the preparation of active compound at the stated rate of application. After the spray coating has dried on, the plants are inoculated with an aqueous spore suspension of Alternaria solani. The plants are then placed in an incubation cabinet at approximately 20° C. and a relative atmospheric humidity of 100%.
The test is evaluated 3 days after the inoculation. 0% means an efficacy which corresponds to that of the untreated control while an efficacy of 100% means that no disease is observed.

[1] = tested on: Blumeria graminis f.sp. hordei; assay: Blumeria test (barley)/preventive; conditions: Table B1; 160 ppm a.i.; 7 days after inoculation
Description: (§5) Solvent: 49 parts by weight of N,N-dimethylacetamide Emulsifier: 1 part by weight of alkylaryl polyglycol ether To produce a suitable preparation of active compound, 1 part by weight of active compound or active compound combination is mixed with the stated amounts of solvent and emulsifier, and the concentrate is diluted with water to the desired concentration. To test for preventive activity, young plants are sprayed with the preparation of active compound or active compound combination at the stated rate of application. After the spray coating has been dried, the plants are dusted with spores of Blumeria graminis f.sp. hordei.

Leptosphaeria nodorum = Leptosphaeria nodorum test (wheat)/preventive; conditions: Table C1; 160 ppm a.i.; 8 days after inoculation
Description: as §5, with “sprayed” for “dusted”, “a spore suspension” for “spores”, “Leptosphaeria nodorum.” for “Blumeria graminis f.sp. hordei.”

Phakopsora pachyrhizi = assay: Phakopsora test (soybeans)/preventive; conditions: Phakopsora pachyrhizi, 168 h, 7 days after inoculation, read-out: Efficacy in % found; for pest or weed control at 0.25 ppm: 0.25 ppm a.i.
Puccinia triticina = assay: Puccinia triticina-test (wheat)/preventive; conditions: Table E1, 8 days after inoculation
Description: (§6) Solvent: 49 parts by weight of N,N-dimethylacetamide
as §2
(§7) To produce a suitable preparation of active compound, 1 part by weight of active compound or active compound combination is mixed with the stated amounts of solvent and emulsifier, and the concentrate is diluted with water to the desired concentration.
(§8) To test for preventive activity, young plants are sprayed with the preparation of active compound or active compound combination at the stated rate of application.
After the spray coating has been dried, the plants are sprayed with a spore suspension of Puccinia triticina. The plants remain for 48 hours in an incubation cabinet at approximately 20° C. and a relative atmospheric humidity of approximately 100%.
(§9) The plants are placed in the greenhouse at a temperature of approximately 20° C. and a relative atmospheric humidity of approximately 80%.
(§10) The test is evaluated 8 days after the inoculation. 0% means an efficacy which corresponds to that of the untreated control, while an efficacy of 100% means that no disease is observed.

Pyrenophora teres = assay: Pyrenophora teres-test (barley)/preventive; conditions: Table F1; 160 ppm a.i.; 8 days after inoculation
Description: as §6, §2, §7, §8
After the spray coating has been dried, the plants are sprayed with a spore suspension of Pyrenophora teres. The plants remain for 48 hours in an incubation cabinet at approximately 20° C. and a relative atmospheric humidity of approximately 100%.
as §9, §10

Sphaerotheca fuliginea = assay: Sphaerotheca test (cucumbers)/preventive; conditions: Table G1, 7 days after inoculation
Description: (§11) Solvent: 24.5 parts by weight of acetone • 24.5 parts by weight of dimethylacetamide Emulsifier: 1 part by weight of alkylaryl polyglycol ether To produce a suitable preparation of active compound, 1 part by weight of active compound is mixed with the stated amounts of solvent and emulsifier, and the concentrate is diluted with water to the desired concentration. To test for preventive activity, young plants are sprayed with the preparation of active compound at the stated rate of application. After the spray coating has dried on, the plants are inoculated with an aqueous spore suspension of Sphaerotheca fuliginea.

Uromyces appendiculatus = assay: Uromyces test (beans)/preventive; conditions: 10 days after inoculation
Description: as §1, §2, §3
as §4, with “the causal agent of bean rust (Uromyces appendiculatus) and” for “Alternaria solani. The plants are”, “remain for 1 day” for “placed”
The plants are then placed in a greenhouse at approximately 21° C. and a relative atmospheric humidity of approximately 90%.
The test is evaluated 10 days after the inoculation. 0% means an efficacy which corresponds to that of the untreated control, while an efficacy of 100% means that no disease is observed.

Venturia inaequalis = assay: Venturia test (apples)/preventive; conditions: Table I1, 10 days after inoculation
Description: as §11, with “application.” for “application. After the spray coating has dried on, the plants are inoculated with an aqueous spore suspension of Sphaerotheca fuliginea.”

## CCN(C)/C=N/c1cc(C)c(Oc2ccccc2)cc1C [(Id)]
Alternaria solani; Table A1, 0.25 ppm a.i.
  Efficacy in % found: 0%
Alternaria solani; Table A1, 0.5 ppm a.i.
  Efficacy in % found: 24%
Alternaria solani; Table A1, 1 ppm a.i.
  Efficacy in % found: 18%
Alternaria solani; Table A2, 0.5 ppm a.i.
  Efficacy in % found: 0%
Alternaria solani; Table A2, 1 ppm a.i.
  Efficacy in % found: 11%
[1]
  Efficacy in % found: 60%
Leptosphaeria nodorum
  Efficacy in % found: 50%
Phakopsora pachyrhizi; Table D1
  pest or weed control at 0.25 ppm: 28%
Phakopsora pachyrhizi; Table D1, 0.5 ppm a.i.
  pest or weed control at 0.5 ppm: 40%
Phakopsora pachyrhizi; Table D1, 1 ppm a.i.
  pest or weed control at 1 ppm: 70%
Phakopsora pachyrhizi; Table D2
  pest or weed control at 0.25 ppm: 45%
Puccinia triticina; 80 ppm a.i.
  Efficacy in % found: 70%
Puccinia triticina; 160 ppm a.i.
  Efficacy in % found: 80%
Pyrenophora teres
  Efficacy in % found: 13%
Sphaerotheca fuliginea; 0.25 ppm a.i.
  Efficacy in % found: 0%
Sphaerotheca fuliginea; 0.5 ppm a.i.
  Efficacy in % found: 0%
Sphaerotheca fuliginea; 1.25 ppm a.i.
  Efficacy in % found: 10%
Uromyces appendiculatus; Table H1, 0.1 ppm a.i.
  Efficacy in % found: 25%
Uromyces appendiculatus; Table H1, 0.25 ppm a.i.
  Efficacy in % found: 60%
Uromyces appendiculatus; Table H2, 0.2 ppm a.i.
  Efficacy in % found: 0%
Uromyces appendiculatus; Table H3, 0.125 ppm a.i.
  Efficacy in % found: 0%
Uromyces appendiculatus; Table H3, 0.25 ppm a.i.
  Efficacy in % found: 0%
Venturia inaequalis; 0.25 ppm a.i.
  Efficacy in % found: 0%
Venturia inaequalis; 0.5 ppm a.i.
  Efficacy in % found: 0%
Venturia inaequalis; 1 ppm a.i.
  Efficacy in % found: 0%
